From patent US12419304B2, “Aryl sulfide comprising benzylamine, synthesis method and application thereof” (Shandong Kangqiao Bio-Technology Co., Ltd., priority 2019, dated 2025)
Like-named read-outs stand apart in the source and are kept apart here.

System: Tetranychus cinnabarinus
Experiment: Activity test of Tetranychus cinnabarinus (spray on inoculated bean seedlings, mortality after 72 hours)
Format: in vivo
Details: for pest or weed control at 6.25 ppm: 6.25 ppm (6.25 mg/L); for pest or weed control at 6.25 ppm / pest or weed control at 25 ppm / pest or weed control at 100 ppm: whole plant sprayed, 72 hours, read-out: lethal rate against mites; for pest or weed control at 25 ppm: 25 ppm (25 mg/L); for pest or weed control at 100 ppm: 100 ppm (100 mg/L)
Method: Activity Test of Tetranychus cinnabarinus
The compound under test was dissolved in acetone and diluted to desired concentration with 0.1% Tween 80 solution with acetone content not exceeding 5%.
One true leaf was removed from the bean seedlings having two true leaves. Tanyanychus cinarinus was inoculated and the cardinal number thereof investigated. The whole plant was sprayed with a handheld sprayer, and each treatment was repeated for 3 times. After treatment, the bean seedlings were cultured in a constant temperature room. 72 hours later, the number of live mites was investigated and the mortality rate was calculated. The number of Tetranychus cinnabarinus was 100-200 per inoculation. Mortality=(number of inoculated mites−number of live mites after treatment)[…]×100%.

[1] = Concentration 3.12 ppm, acaricidal parallel test with bifenazate and cyflumetofen, read-out: Mortality %

Question: With COC(=O)c1cc(F)ccc1CNc1cc([S+]([O-])CC(F)(F)F)c(Cl)cc1F (centres unmarked) [Compound 1166] as the compound, how does the pest or weed control at 6.25 ppm read?
Answer: The pest or weed control at 6.25 ppm was greater than 90%.

Question: What about the pest or weed control at 25 ppm of the same compound?
Answer: Its pest or weed control at 25 ppm is greater than 90%.

Question: What about the pest or weed control at 100 ppm of the same compound?
Answer: Its pest or weed control at 100 ppm is greater than 90%.

Question: And the mortality at 3.12 ppm [1]?
Answer: Its mortality at 3.12 ppm is 98%.

Question: Cc1cc(F)c(NCc2ccc(Cl)c(F)c2)cc1SCC(F)(F)F [Compound 249, N-(4-chloro-3-fluorobenzyl)-2-fluoro-4-methyl-5-((2,2,2-trifluoroethyl)thio) aniline] was tested. Which pest or weed control at 100 ppm did it give?
Answer: Its pest or weed control at 100 ppm is greater than 90%.

Question: COC(=O)c1ccccc1CNc1cc(SCC(F)(F)F)c(C)cc1F [Compound 53] was tested. Which pest or weed control at 6.25 ppm did it give?
Answer: The pest or weed control at 6.25 ppm was greater than 90%.

Question: And the pest or weed control at 25 ppm?
Answer: Its pest or weed control at 25 ppm is greater than 90%.

Question: And the pest or weed control at 100 ppm?
Answer: Its pest or weed control at 100 ppm is greater than 90%.

Question: And the mortality at 3.12 ppm [1]?
Answer: Its mortality at 3.12 ppm is 99%.

Question: Which pest or weed control at 6.25 ppm does the source give for COC(=O)c1cc(F)ccc1CNc1cc(SCC(F)(F)F)c(C)cc1F [Compound 303, 5-Fluoro-2-((((2-Fluoro-4-methyl-5-(2,2,2-trifluoroethyl)thio)phenyl)amino)methyl) benzoate] here?
Answer: The pest or weed control at 6.25 ppm was greater than 90%.

Question: What about the pest or weed control at 25 ppm of the same compound?
Answer: The pest or weed control at 25 ppm was greater than 90%.

Question: And the pest or weed control at 100 ppm?
Answer: Its pest or weed control at 100 ppm is greater than 90%.

Question: And the mortality at 3.12 ppm [1]?
Answer: The mortality at 3.12 ppm was 99%.

Question: What does the source list for COC(=O)c1ccccc1CNc1cc(SCC(F)(F)F)c(Cl)cc1F [Compound 1202, 2-((((4-chloro-2-fluoro-5-((2,2,2-trifluoroethyl)thio)phenyl)amino)methyl) benzoate]?
Answer: pest or weed control at 6.25 ppm: > 90%; pest or weed control at 25 ppm: > 90%; pest or weed control at 100 ppm: > 90%; mortality at 3.12 ppm [1]: 97%

Question: For Cc1cc(F)c(NCc2cccc(F)c2)cc1SCC(F)(F)F [Compound 229, 2-fluoro-N-(3-fluorobenzyl)-4-methyl-5-((2,2,2-trifluoroethyl)thio) aniline], which pest or weed control at 100 ppm is on record?
Answer: The pest or weed control at 100 ppm was greater than 90%.

Question: For COC(=O)c1ccccc1CNc1cc([S+]([O-])CC(F)(F)F)c(C)cc1F (centres unmarked) [Compound 54], which pest or weed control at 6.25 ppm is on record?
Answer: The pest or weed control at 6.25 ppm was greater than 90%.

Question: What about the pest or weed control at 25 ppm of the same compound?
Answer: The pest or weed control at 25 ppm was greater than 90%.

Question: What about the pest or weed control at 100 ppm of the same compound?
Answer: Its pest or weed control at 100 ppm is greater than 90%.

Question: And the mortality at 3.12 ppm [1]?
Answer: The mortality at 3.12 ppm was 100%.

Question: With COCCOC(=O)C(C#N)(C(=O)c1ccccc1C(F)(F)F)c1ccc(C(C)(C)C)cc1 (centres unmarked) [Cyflumetofen, cyflumetofen, reference compound] as the compound, how does the mortality at 3.12 ppm read?
Answer: Its mortality at 3.12 ppm is 72%.

Question: How did the pest or weed control at 100 ppm turn out when Cc1cc(F)c(NCc2ccc(Cl)c(Cl)c2)cc1SCC(F)(F)F [Compound 247] was run?
Answer: The pest or weed control at 100 ppm was greater than 90%.

Question: What does the source list for COC(=O)c1cc(F)ccc1CNc1cc(SCC(F)(F)F)c(Cl)cc1F [Compound 1165]?
Answer: pest or weed control at 6.25 ppm: > 90%; pest or weed control at 25 ppm: > 90%; pest or weed control at 100 ppm: > 90%; mortality at 3.12 ppm [1]: 99%

Question: Which results are given for COC(=O)c1cc(F)ccc1CNc1cc([S+]([O-])CC(F)(F)F)c(C)cc1F (centres unmarked) [Compound 304]?
Answer: pest or weed control at 6.25 ppm: > 90%; pest or weed control at 25 ppm: > 90%; pest or weed control at 100 ppm: > 90%; mortality at 3.12 ppm [1]: 98%

Question: How did the pest or weed control at 100 ppm turn out when Cc1cc(F)c(NCc2ccccc2C#N)cc1SCC(F)(F)F [Compound 33] was run?
Answer: The pest or weed control at 100 ppm was greater than 90%.

Question: With COC(=O)c1ccccc1CNc1cc([S+]([O-])CC(F)(F)F)c(Cl)cc1F (centres unmarked) [Compound 1203] as the compound, how does the pest or weed control at 6.25 ppm read?
Answer: The pest or weed control at 6.25 ppm was greater than 90%.

Question: And the pest or weed control at 25 ppm?
Answer: Its pest or weed control at 25 ppm is greater than 90%.

Question: What about the pest or weed control at 100 ppm of the same compound?
Answer: Its pest or weed control at 100 ppm is greater than 90%.

Question: And the mortality at 3.12 ppm [1]?
Answer: Its mortality at 3.12 ppm is 98%.

Question: For COc1ccc(-c2ccccc2)cc1NNC(=O)OC(C)C [Bifenazate, bifenazate, reference compound], which mortality at 3.12 ppm is on record?
Answer: Its mortality at 3.12 ppm is 85%.
